From publication PMC9532755, “Impact of lactisole on the time-intensity profile of selected sweeteners in dependence of the binding site” (Food Chemistry: X, 2022)

System: perceived sweet intensity (panelists)
Assay: Sensory time-intensity (TI) measurement of sweetness by a trained panel
Assay type: in vivo, human
Details: for AUC of time-intensity curve / lingering (intensity at 90 sec) / onset (time-point of first maximum intensity) / max. int. (maximum sweet intensity): lactisole alone, mean ± SEM; for AUC of time-intensity curve: 180 sec evaluation; for max. int. (maximum sweet intensity): unstructured scale 0-100
Excerpt: All panelists gave their written informed consent for participating in the panel and had to complete a sensory training. […] On a last training day, the evaluation on unstructured scales and the time-dependent evaluation on the computer were trained. All panelists reported to be in good general health condition, and not being under medication or pregnant. At least one hour before every training or tasting, panelists were instructed not to smoke and not to consume intense tasting food or beverage (e.g. coffee, chili, garlic, chewing gum) and to avoid in general strong hunger or fullness as well as strong odors or perfume on test days.
Every test solution was assessed randomly at two different test days with at least 8 panelists participating per replicate. The panelists were free to choose to participate at the different test days. A maximum of five test compounds were assessed in one session. All samples were coded with three-digit random code and presented to the panelists in randomized order. On each test day, panelists were presented five sweet solutions with 0, 25, 50, 100 and 200 g/L sucrose as a scale training for the ratings from “not at all” to “very intensive” sweetness. […] The three minutes of evaluation were chosen to capture as much of the lingering as possible without wearing out the panelists during the evaluation. A total of 350 measuring time points was recorded within the pre-set time frame, especially to see differences in the first seconds of evaluation, which are important for the onset. The panelists were asked to take the sample (20 mL) into their mouth, while starting the timer and simultaneously the evaluation of sweet intensity over the time, and to spit out the sample after ten seconds while continuing the evaluation of the sweetness intensity until the end of the three minutes.
For comparison of the time-dependent properties, the following descriptors were used: the maximum intensity at the first 30 sec of evaluation as “max. intensity”, the time-point of the first maximum intensity as “onset” in sec, […], and the area under the curve from the time-intensity plots as “AUC” as a marker for the overall intensity and duration.
All sensory experiments were conducted at the Christian Doppler Laboratory for Taste Research at the Institute for Physiological Chemistry, University of Vienna, Austria, at room temperature (21 – 23 °C). • Calcium mobilization assay
The statistical analysis and graphical representation were performed with GraphPad Prism 9.0 for sensory results and with SigmaPlot 14.0 for cell experiments. To evaluate the sensory dose–response effects of ascending sweetener concentration w/o lactisole, an asymmetrical five-parameter curve (Richard́s five-parameter dose–response curve) was fitted. The data are presented as means ± SEM from at least 16 single evaluations. Statistical significance between the different test compounds and concentration-dependent effects was assessed by two-way ANOVAs with Tukey post hoc test using Graph Pad Prism. The normal distribution of the data sets was checked by evaluation of the kurtosis (between −7 to + 7) and the skewness (between −3 to + 3). Equal variance was tested using Levenés test. In case the assumptions of a normal distribution and equal variance were not met, the non-parametric ANOVA on ranks (Kruskal-Wallis Test) with Dunn's post-hoc test without the calculation of interaction was applied. A Pearson product moment correlation was conducted to investigate relationships between sensory results and cell responses of the tested sweeteners.

In the case of COc1ccc(OC(C)C(=O)O)cc1 (stereo not drawn) [lactisole, sodium 2-(4-methoxyphenoxy) propanoate], the “time after which a sweet perception (sweet aftertaste) was reported” value (lactisole 0.46 mM and 0.92 mM, sip-and-spit, spit out after ten seconds) is reported as “around 30 sec”, the “AUC of time-intensity curve” value (0.46 mM) is reported as 4285 ± 926 and the “lingering (intensity at 90 sec)” value (0.46 mM) is reported as 16.96 ± 3.9. For the same molecule, the “onset (time-point of first maximum intensity)” value (0.46 mM) was 106.0 ± 19.8 s, the “max. int. (maximum sweet intensity)” value (0.46 mM) was 23.3 ± 4.0 and the “AUC of time-intensity curve” value (0.92 mM) was 5990 ± 1122. The “lingering (intensity at 90 sec)” value (0.92 mM) was 21.12 ± 3.8, the “onset (time-point of first maximum intensity)” value (0.92 mM) was 144.9 ± 21.9 s and the “max. int. (maximum sweet intensity)” value (0.92 mM) was 29.8 ± 4.2.
